# Results taken from patent US11266626B2, “Reduction of ER-MAM-localized APP-C99 and methods of treating alzheimer's disease” (THE TRUSTEES OF COLUMBIA UNIVERSITY IN THE CITY OF NEW YORK, priority 2015, dated 2022).
# Entries after “also recorded” stand apart in the source; their conditions may differ.
# System: acid (aSMase) and neutral (nSMase) sphingomyelinases
# Assay: Analysis of sphingomyelinase activity
# Type: cell-based, human
# Details: SH-SY5Y cells; DAPT 10 μM
# Procedure: One hundred μg of protein were assayed in 100 mM of the appropriate buffer (Tris/glycine for pH 7.0-9.0 and sodium acetate for pH 4.0-5.0), 1.55 mM Triton X-100, 0.025% BSA, 1 mM MgCl2, and 400 μM bovine brain sphingomyelin spiked with 22000 dpm of [3H]-bovine sphingomyelin ([…]). Reactions were carried out in borosilicate glass culture tubes at 37° C., overnight, followed by quenching with 1.2 ml of ice-cold 10% trichloroacetic acid, incubation at 4° C. for 30 min, and centrifugation at 2000 rpm at 4° C. for 20 min. One ml of supernatant was transferred to clean tubes, 1 ml of ether was added, the mixture vortexed, and centrifuged at 2000 rpm for 5 min. Eight hundred μl of the bottom phase was transferred to scintillation vials, 5 ml of Scintiverse BD (Fisher Scientific, Fair Lawn, N.J.) was added, and samples were counted. […]
# Reactions were carried out in borosilicate glass culture tubes at 37° C., overnight, followed by quenching with 1.2 ml of ice-cold 10% trichloroacetic acid, incubation at 4° C. for 30 min, and centrifugation at 2000 rpm at 4° C. for 20 min. […] Eight hundred μl of the bottom phase was transferred to scintillation vials, 5 ml of Scintiverse BD (Fisher Scientific, Fair Lawn, N.J.) was added, and samples were counted. […]
smiles,measurement,value
C[C@H](NC(=O)Cc1cc(F)cc(F)c1)C(=O)N[C@H](C(=O)OC(C)(C)C)c1ccccc1 [DAPT],SMase activity,significantly increased SMase activities; also recorded: increase in SMase activity
